According to US20250034592A1, “NEUROPEPTIDE-[…] AND METHODS FOR THE TREATMENT OF EPILEPSY” (CHARITE - UNIVERSIT[…], priority 2016, published 2025):

Test system: pDyn deficient mice
Assay: Seizure threshold, pentylenetetrazole (PTZ) tail-vein infusion
Format: in vivo
Conditions: FIG. 6; for potency in seizure threshold test: compared with Dyn B
Excerpt: Pentylenetetrazole is an inhibitor of GABAA receptors and induces seizures upon injection into the tail vein. pDyn deficient animals display a reduce seizure threshold compared to wild-type mice. […] From this, we expect an early onset of the effect of gene therapy and a lower number of vectors needed per patient.
The seizure threshold is a measure for the susceptibility to develop seizures. The resistance against seizure-inducing agents or stimuli is used as readout in animals. Infusion of pentylenetetrazole, a GABAA receptor antagonist, into the tail vein of rodents is an accepted method to measure the seizure threshold. […] This can be rescued by kappa opioid receptors agonists.
Seizure threshold was determined by pentylenetetrazole (PTZ) (see FIG. 6) tail-vein infusion on freely moving pDyn deficient mice at a rate of 100 μl/min ([…] PTZ in saline, pH 7.4). […] The seizure threshold dose was calculated from the infused volume in relation to body weight. Dyn B or modified variants thereof were dissolved in DMSO and diluted to the final dosages in saline containing final concentrations of 10% DMSO, 3% Tween 80. 3 μl of peptide-solution were applied 30 min. before tail-vein infusion under mild sevoflurane anaesthesia into the cisterna magna. The following peptides were tested: Dyn B=SEQ ID No. 8, Dyn B G3A=SEQ ID 10 No. 11 wherein Z at position 3 is alanine, Dyn B G3A+Q8A=SEQ ID No. 11 wherein Z at position 3 is alanine and Z at position 8 of SEQ ID No. 11 is alanine, Dyn B Q8A=SEQ ID No. 11 wherein Z at position 8 is alanine.

Substance: Dyn B G3A+Q8A: SEQ ID No. 11 wherein Z at position 3 is alanine and Z at position 8 is alanine (YGAFLRRAFKVVT; VARIANT 3 Any amino acid; VARIANT 8 Any amino acid; listed as Homo sapiens)
- potency in seizure threshold test: higher potency

Substance: Dyn B G3A: SEQ ID No. 11 (YGZFLRRZFKVVT) wherein Z at position 3 is alanine (YGAFLRRXFKVVT; VARIANT 3 Any amino acid; VARIANT 8 Any amino acid; listed as Homo sapiens)
- potency in seizure threshold test: higher potency

Substance: Dynorphin B [Dyn B, reference compound]
- seizure threshold (peptide applied into cisterna magna 30 min before): rescued
